Measurements: patent US9169254B2, “Spiroimidazolone derivative” (Chugai Seiyaku Kabushiki Kaisha, priority 2009, dated 2015)

Target: T1, human PTH1 receptor (Homo sapiens, UniProt Q03431)
T1 sequence (Q03431 27-593): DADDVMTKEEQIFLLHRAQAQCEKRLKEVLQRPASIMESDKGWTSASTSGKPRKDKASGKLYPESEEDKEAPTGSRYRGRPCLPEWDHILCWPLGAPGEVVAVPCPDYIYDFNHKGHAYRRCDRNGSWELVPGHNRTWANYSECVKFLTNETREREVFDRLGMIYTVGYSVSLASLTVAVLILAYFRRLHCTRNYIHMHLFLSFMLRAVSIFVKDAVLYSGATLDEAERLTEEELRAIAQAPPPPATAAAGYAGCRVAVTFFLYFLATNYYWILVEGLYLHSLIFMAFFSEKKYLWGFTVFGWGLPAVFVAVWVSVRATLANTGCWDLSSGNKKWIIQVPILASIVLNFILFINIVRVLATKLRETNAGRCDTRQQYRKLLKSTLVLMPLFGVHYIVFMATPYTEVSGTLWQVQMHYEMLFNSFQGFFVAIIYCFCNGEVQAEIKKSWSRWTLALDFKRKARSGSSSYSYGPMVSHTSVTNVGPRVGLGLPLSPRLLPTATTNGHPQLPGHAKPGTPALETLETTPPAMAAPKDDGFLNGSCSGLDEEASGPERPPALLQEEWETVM
Test: In vitro cAMP signal activity in HKRK-B7 cells (LLC-PK1 cells overexpressing the human PTH1 receptor)
Type: cell-based

[1] = HKRK-B7 cells, compound at 1×10^−3 M, cAMP produced as percentage of that produced by hPTH(1-34) at 100 nM
[2] = HKRK-B7 cells, compound at 1×10^−3 M, cAMP produced as percentage of that produced by hPTH(1-34) at 100 nM, 0.1 µM

Row | cAMP production activity (%) [1] | Compound | also measured
1 | 89% | O=C1NC(C2CCCCC2)=NC12CCN(S(=O)(=O)CCc1cccc3c1ccn3C[C@H](O)[C@@H](O)CO)CC2 [Compound 1392, 2-Cyclohexyl-8-{2-[1-((2S,3S)-2,3,4-trihydroxy-butyl)-1H-indol-4-yl]-ethanesulfonyl}-1,3,8-triaza-spiro[4.5]dec-1-en-4-one] | –
2 | 84% | O=C1NC(C2CCCCC2)=NC12CCN(S(=O)(=O)CCc1cccc3c1ccn3C[C@H](O)[C@@H](O)COCc1ccccc1)CC2 [Compound 1393, 8-{2-[1-((2S,3S)-4-benzyloxy-2,3-dihydroxy-butyl)-1H-indol-4-yl]-ethanesulfonyl}-2-cyclohexyl-1,3,8-triaza-spiro[4.5]dec-1-en-4-one] | –
3 | 82% | CC(=O)NCc1ccc(CCS(=O)(=O)N2CCC3(CC2)N=C(C2CCC(CCC(F)(F)F)CC2)NC3=O)c(C)c1 (centres unmarked) [Compound 1394, N-[3-Methyl-4-(2-{4-oxo-2-[4-(3,3,3-trifluoro-propyl)-cyclohexyl]-1,3,8-triaza-spiro[4.5]dec-1-ene-8-sulfonyl}-ethyl)-benzyl]-acetamide] | –
4 | 68% | Cc1cc(C(=O)N(C)C)ccc1CCS(=O)(=O)N1CCC2(CC1)N=C(Nc1cccc(C(F)(F)F)c1)NC2=O [Compound 1395, 3,N,N-Trimethyl-4-{2-[4-oxo-2-(3-trifluoromethyl-phenylamino)-1,3,8-triaza-spiro[4.5]dec-1-ene-8-sulfonyl]-ethyl}-benzamide] | –
5 | – | Cc1cc(C(=O)N(C)C)ccc1CCS(=O)(=O)N1CCC2(CC1)N=C(Nc1ccc(C(F)(F)F)cc1)NC2=O [Compound 1396, 3,N,N-Trimethyl-4-{2-[4-oxo-2-(4-trifluoromethyl-phenylamino)-1,3,8-triaza-spiro[4.5]dec-1-ene-8-sulfonyl]-ethyl}-benzamide] | cAMP production activity (%) (0.1 µM): 133%
6 | 24% | Cc1cc(C(=O)N(C)C)ccc1CCS(=O)(=O)N1CCC2(CC1)N=C(N(C)c1ccccc1)NC2=O [Compound 1397, 3,N,N-trimethyl-4-{2-[2-(methyl-phenyl-amino)-4-oxo-1,3,8-triaza-spiro[4.5]dec-1-ene-8-sulfonyl]-ethyl}-benzamide] | –
7 | 77% | Cc1cc(C(=O)N(C)C)ccc1CCS(=O)(=O)N1CCC2(CC1)N=C(N(C)Cc1ccccc1)NC2=O [Compound 1398, 4-{2-[2-(benzyl-methyl-amino)-4-oxo-1,3,8-triaza-spiro[4.5]dec-1-ene-8-sulfonyl]-ethyl}-3,N,N-trimethyl-benzamide] | –
8 | 20% | Cc1cc(C(=O)N(C)C)ccc1CCS(=O)(=O)N1CCC2(CC1)N=C(NCC1CCCCC1)NC2=O [Compound 1399, 4-{2-[2-(cyclohexylmethyl-amino)-4-oxo-1,3,8-triaza-spiro[4.5]dec-1-ene-8-sulfonyl]-ethyl}-3,N,N-trimethyl-benzamide] | –
9 | 49% | Cc1cc(C(=O)N(C)C)ccc1CCS(=O)(=O)N1CCC2(CC1)N=C(N(C)c1ccc(C(F)(F)F)cc1)NC2=O [Compound 1400, 3,N,N-trimethyl-4-(2-{2-[methyl-(4-trifluoromethyl-phenyl)-amino]-4-oxo-1,3,8-triaza-spiro[4.5]dec-1-ene-8-sulfonyl}-ethyl)-benzamide] | –
10 | 73% | CC(=O)Nc1ccc(CCS(=O)(=O)N2CCC3(CC2)N=C(Nc2ccc(C(F)(F)F)cc2)NC3=O)c(C)c1 [Compound 1401, N-(3-Methyl-4-{2-[4-oxo-2-(4-trifluoromethyl-phenylamino)-1,3,8-triaza-spiro[4.5]dec-1-ene-8-sulfonyl]-ethyl}-phenyl)-acetamide] | –
11 | 69% | CC(=O)Nc1ccc(CCS(=O)(=O)N2CCC3(CC2)N=C(Nc2cccc(C(F)(F)F)c2)NC3=O)c(C)c1 [Compound 1402, N-(3-methyl-4-{2-[4-oxo-2-(3-trifluoromethyl-phenylamino)-1,3,8-triaza-spiro[4.5]dec-1-ene-8-sulfonyl]-ethyl}-phenyl)-acetamide] | –
12 | 66% | CCCCC1CCN(C2=NC3(CCN(S(=O)(=O)CCc4ccc(C(=O)N(C)C)cc4C)CC3)C(=O)N2)CC1 [Compound 1403, 4-{2-[2-(4-Butyl-piperidin-1-yl)-4-oxo-1,3,8-triaza-spiro[4.5]dec-1-ene-8-sulfonyl]-ethyl}-3,N,N-trimethyl-benzamide] | –
13 | 64% | CCCCC1CCC(NC2=NC3(CCN(S(=O)(=O)CCc4ccc(C(=O)N(C)C)cc4C)CC3)C(=O)N2)CC1 (centres unmarked) [Compound 1404, 4-{2-[2-(4-butyl-cyclohexylamino)-4-oxo-1,3,8-triaza-spiro[4.5]dec-1-ene-8-sulfonyl]-ethyl}-3,N,N-trimethyl-benzamide] | –
14 | 51% | C=CCCCN(C)C(=O)c1ccc(CCS(=O)(=O)N2CCC3(CC2)N=C(c2cc(OCCC=C)cc(C(F)(F)F)c2)NC3=O)c(C)c1 [Compound 1405, 4-{2-[2-(3-But-3-enyloxy-5-trifluoromethyl-phenyl)-4-oxo-1,3,8-triaza-spiro[4.5]dec-1-ene-8-sulfonyl]-ethyl}-3,N-dimethyl-N-pent-4-enyl-benzamide] | –
15 | 7.3% | Cc1cc2ccc1CCS(=O)(=O)N1CCC3(CC1)N=C(NC3=O)c1cc(cc(C(F)(F)F)c1)OCCC=CCCCN(C)C2=O [Compound 1406] | –
16 | 6.6% | Cc1cc2ccc1CCS(=O)(=O)N1CCC3(CC1)N=C(NC3=O)c1cc(cc(C(F)(F)F)c1)OCCCCCCCN(C)C2=O [Compound 1407] | –
17 | 5.1% | Cc1cc2ccc1CCS(=O)(=O)N1CCC3(CC1)N=C(NC3=O)c1cc(cc(C(F)(F)F)c1)OCC/C=C\CN(C)C2=O [Compound 1408] | –
18 | 13% | Cc1cc2ccc1CCS(=O)(=O)N1CCC3(CC1)N=C(NC3=O)c1cc(cc(C(F)(F)F)c1)OCCCCCN(C)C2=O [Compound 1409] | –

Row | cAMP production activity (%) [1] | Compound | also measured
19 | – | Cc1cc2ccc1CCS(=O)(=O)N1CCC3(CC1)N=C(NC3=O)c1cc(cc(C(F)(F)F)c1)OCCC=CCCCCN(C)C2=O [Compound 1410] | cAMP production activity (%) [2]: 51%
20 | – | Cc1cc2ccc1CCS(=O)(=O)N1CCC3(CC1)N=C(NC3=O)c1cc(cc(C(F)(F)F)c1)OCCC=CCCCCN(C)C2=O [Compound 1411] | cAMP production activity (%) [2]: 38%
21 | 7.2% | Cc1cc2ccc1CCS(=O)(=O)N1CCC3(CC1)N=C(NC3=O)c1cc(cc(C(F)(F)F)c1)OCCCCCCCCN(C)C2=O [Compound 1412] | –
22 | 57% | Cc1cc2ccc1CCS(=O)(=O)N1CCC3(CC1)N=C(NC3=O)c1cc(cc(C(F)(F)F)c1)OCC/C=C/CCCCCN(C)C2=O [Compound 1413] | –
23 | 47% | Cc1cc2ccc1CCS(=O)(=O)N1CCC3(CC1)N=C(NC3=O)c1cc(cc(C(F)(F)F)c1)OCC/C=C\CCCCCN(C)C2=O [Compound 1414] | –
24 | 49% | Cc1cc2ccc1CCS(=O)(=O)N1CCC3(CC1)N=C(NC3=O)c1cc(cc(C(F)(F)F)c1)OCCCCCCCCCN(C)C2=O [Compound 1415] | –
25 | 48% | Cc1cc2ccc1CCS(=O)(=O)N1CCC3(CC1)N=C(NC3=O)c1cc(cc(C(F)(F)F)c1)OCC/C=C/CCCCCCN(C)C2=O [Compound 1416] | –
26 | 49% | Cc1cc2ccc1CCS(=O)(=O)N1CCC3(CC1)N=C(NC3=O)c1cc(cc(C(F)(F)F)c1)OCC/C=C\CCCCCCN(C)C2=O [Compound 1417] | –
27 | 36% | Cc1cc2ccc1CCS(=O)(=O)N1CCC3(CC1)N=C(NC3=O)c1cc(cc(C(F)(F)F)c1)OCCCCCCCCCCN(C)C2=O [Compound 1418] | –
28 | 70% | C=CCCOc1cc(C2=NC3(CCN(S(=O)(=O)CCc4ccc(C(=O)N(C)CCOCC=C)cc4C)CC3)C(=O)N2)cc(C(F)(F)F)c1 [Compound 1419, N-(2-Allyloxy-ethyl)-4-{2-[2-(3-but-3-enyloxy-5-trifluoromethyl-phenyl)-4-oxo-1,3,8-triaza-spiro[4.5]dec-1-ene-8-sulfonyl]-ethyl}-3,N-dimethyl-benzamide] | –
29 | 20% | Cc1cc2ccc1CCS(=O)(=O)N1CCC3(CC1)N=C(NC3=O)c1cc(cc(C(F)(F)F)c1)OCC/C=C/COCCN(C)C2=O [Compound 1420] | –
30 | 49% | Cc1cc2ccc1CCS(=O)(=O)N1CCC3(CC1)N=C(NC3=O)c1cc(cc(C(F)(F)F)c1)OCCCCCOCCN(C)C2=O [Compound 1421] | –
31 | 15% | Cc1cc2ccc1CCS(=O)(=O)N1CCC3(CC1)N=C(NC3=O)c1cc(cc(C(F)(F)F)c1)OCC/C=C/CNC(=O)CN(C)C2=O [Compound 1422] | –
32 | 17% | Cc1cc2ccc1CCS(=O)(=O)N1CCC3(CC1)N=C(NC3=O)c1cc(cc(C(F)(F)F)c1)OCCC/C=C\NC(=O)CN(C)C2=O [Compound 1423] | –
33 | 29% | Cc1cc2ccc1CCS(=O)(=O)N1CCC3(CC1)N=C(NC3=O)c1cc(cc(C(F)(F)F)c1)OCC/C=C/CO[C@H]1CN(C[C@@H]1O)C2=O [Compound 1424] | –
34 | 32% | Cc1cc2ccc1CCS(=O)(=O)N1CCC3(CC1)N=C(NC3=O)c1cc(cc(C(F)(F)F)c1)OCCCCCO[C@H]1CN(C[C@@H]1O)C2=O [Compound 1425] | –
35 | 5.4% | Cc1cc2ccc1CCS(=O)(=O)N1CCC3(CC1)N=C(NC3=O)c1cc(cc(C(F)(F)F)c1)OCC/C=C/COCCNC2=O [Compound 1426] | –
